# “Also recorded” adds a separate entry of the source.
# Assays:
# human spermatozoa = assay: Human sperm motility assay with Compound A4; assay type: cell-based
# Source text: Human spermatozoa were obtained from the UNC-Hospital clinic, washed and used for testing in a motility assay. Compound A4 reduced the total number of motile sperm in an ejaculate to <10% within one hour. The data are shown below in FIGS. 5 and 6, and in Tables 2 and 3.
# [1] = biological target: T1, recombinant Eppin binding to recombinant semenogelin (Homo sapiens, UniProt O95925); assay: Eppin-semenogelin in vitro binding assay (96-well ELISA format, absorption at 450 nm); conditions: Eppin preincubated with compound dilutions starting at 40 μg/ml; OD 450 nm (FIG. 4)
# T1 construct: made in house; host or cells: E. coli strain M15 [pREP-4]
# Procedure: In one embodiment, His-tagged recombinant semenogelin is bound to the individual wells of the plate, FLAG-tagged recombinant Eppin is bound to the semenogelin. The recombinant Eppin and recombinant semenogelin will form a complex. Compounds are then individually added to the wells of the plate and allowed to interfere with the Eppin-semenogelin complex formation. An anti-FLAG antibody (such as the M2 antibody sold by Sigma-Aldrich) is then added to the wells of the plate. The inhibition of the binding of Eppin to semenogelin is determined by looking for changes in Eppin-semenogelin binding when the anti-FLAG antibody (such as those used in commercially-available ELISA assays) is added. One can detect the binding of the anti-FLAG antibody to the FLAG tagged Eppin, for example, by looking at the absorption at 450 nm. In another embodiment, compounds are incubated with FLAG-tagged recombinant Eppin before being added to Sg. The anti-FLAG antibody is added after the Eppin-compound mixtures are added to the wells of the plate.
# Recombinant Eppin and semenogelin are as described in Wang et al., Biology of Reproduction, 72:1064-1070 (2005). The recombinant Eppin used in the assays described herein has been tagged with a FLAG tag. The recombinant semenogelin is a His-tagged recombinant protein of the fragment of semenogelin starting with amino acid 164 and continuing to amino acid 283. […]
# T1 sequence (O95925 22-133): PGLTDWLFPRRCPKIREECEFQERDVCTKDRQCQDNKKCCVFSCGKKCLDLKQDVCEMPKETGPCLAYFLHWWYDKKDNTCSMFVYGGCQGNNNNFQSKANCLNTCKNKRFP
smiles,measurement,setting,value
Cl.NC(=O)CNCC(N)=O [Compound A4],Velocity,"human spermatozoa; Table 2, swim up + A4 + 1 hr",15 μm/sec
same,total distance,"human spermatozoa; Table 2, swim up + A4 + 1 hr",222 μm
same,% Motility,"human spermatozoa; Table 3, swim up + 1 hour",7%
same,Average velocity,"human spermatozoa; Table 3, swim up + 1 hour",14.9 μm/sec
same,Distance,"human spermatozoa; Table 3, swim up + 1 hour",222 μm
same,Straight distance,"human spermatozoa; Table 3, swim up + 1 hour",48.7 μm
same,inhibition of sperm motility (in words),human spermatozoa; human spermatozoa,"inhibits their motility, significantly reducing their forward velocity and distance traveled; also recorded: effective at inhibiting sperm motility"
same,total number of motile sperm in an ejaculate,human spermatozoa; within one hour,< 10%
same,inhibition of Eppin-semenogelin binding,[1],effective at inhibiting this binding in a dose dependent manner; also recorded: inhibited Eppin-semenogelin binding in a dose dependent manner

# — US20100286280A1, “INHIBITORS OF EPPIN/SEMENOGELIN BINDING AS MALE CONTRACEPTIVES” (The University of North Carolina at Chapel Hill, priority 2007, published 2010)
